Patent US4564639A, “N-(2,6-Difluorobenzoyl-N-'-(2-fluoro-4-halophenyl)urea” (priority 1982, dated 1986)
Like-named read-outs stand apart in the source and are kept apart here.

Assays:
Spodoptera litura [1] = test: Insecticidal effect against Spodoptera litura, soil treatment with granules (Table 1, III); format: in vivo; conditions: 96 h, 250 mg of 2 weight % granules in soil of potted soybean, leaves cut 10 days after treatment, third-instar larvae, read-out: mortality (III, treatment amount)
Experimental: (§1) Insecticidal effect against Spodoptera litura
(c) Using the compounds of the present invention, i.e. Compound Nos. 1, 2, 3 and 4, and control compounds, i.e. Compounds A through G, as the test compounds, granules containing 2 weight % of the test compounds were prepared by the same procedure as in Example 13, and 250 and 500 mg of each of the granules were admixed, for the purpose of treatment, into the soil around roots of soybean plants grown in pots (diameter of 9 cm), respectively. The pots so treated were placed in a glass room (28° C.), and 10 days after the treatment, two true leaves were cut away and contained each in ice cream cups (diameter of 6 cm and depth of 4 cm). 10 third-instar larvae of Spodoptera litura were released into each of the ice cream cups, and a number of dead larvae was checked in accordance with the same method as the examination method as stated under (a).
(§2) The mortalities in Test Examples 1 through 3 were calculated by the formula as mentioned below: [formula]

Plutella xylostella = test: Insecticidal effect against Plutella xylostella, sprayed radish seedlings; format: in vivo
Experimental: as §2
Insecticidal effect against Plutella xylostella
By the same procedure as in Example 9, the test compounds comprising the compounds of the present invention, i.e., Compound Nos. 1, 2, 3 and 4, and control compounds, i.e. Compounds A through G, were processed into wettable powder, and the aqueous solutions of 50 ppm in concentration were prepared therefrom by the same method as stated under (a) of Test Example 1. 20 ml of each of the aqueous solutions was sprayed on seedlings of radish (25 days after germination) grown in pots in accordance with the same method as described under (a) of Test Example 1. 2 hours after the spraying, two true leaves were cut away and contained in their respective ice cream cups (diameter of 6 cm and depth of 4 cm), into which 10 second-instar larvae of Plutella xylostella were released. After the larvae were released, the above-mentioned cups were placed in a room (25° C.), and a number of dead larvae after 48 hours was checked.

Chilo suppressalis = test: Insecticidal effect against Chilo suppressalis, dipped rice seedlings; format: in vivo; conditions: 96 h, read-out: Mortality, % (spraying concn.)
Experimental: as §2
Insecticidal effect against Chilo suppressalis
By the same procedure as in Example 9, the test compounds comprising the compounds of the present invention, i.e. Compound Nos. 1, 2, 3 and 4, and control compounds, i.e. Compounds A through G, were processed into wettable powder, respectively, and the aqueous solutions of 0.4 and 2 ppm in concentration were prepared therefrom by the same method as stated under (a) of Test Example 1, whereby 10 rice seedlings (the height of a plant of 2 cm) were dipped in each of the insecticide solutions for 30 minutes. The seedlings thus treated were placed in the respective glass containers (diameter of 2 cm and depth of 5 cm), into which 10 third-instar larvae of Chilo suppressalis were released. The containers were covered with aluminum foil and allowed to stand in a room (25° C.), and a number of dead larvae 4 days after the larvae were released was checked.

Toxicity to fishes = test: Toxicity to fishes; parameters: species or system Orizias latipes; conditions: in vivo; 72 hours later, orange-red killifish; read-out: TLm (the concentration at which 50% of the test fish dies)
Spodoptera litura [2] = test: Insecticidal effect against Spodoptera litura, direct spraying on larvae (Table 1, II); format: in vivo; conditions: read-out: mortality (II, spraying concn.)
Experimental: as §1
(b) By the same procedure as in Example 7, the test compounds comprising the compounds of the present invention, i.e. Compound Nos. 1, 2, 3 and 4, and control compounds, i.e. Compounds A through G, were each processed into emulsifiable concentrates, which were then diluted with water to produce the aqueous solutions (containing 0.03 % v/v of added spreader, Dyne® (produced by Takeda Chemical Industries, Japan)) containing 10 and 50 ppm of the test compounds, respectively. 20 ml of each of the aqueous solutions was sprayed on 10 third-instar larvae of Spodoptera litura placed in a cage of wire netting. 30 minutes after the spraying, the larvae were taken out of the cage of wire netting and placed in an ice cream cup (diameter of 6 cm and depth of 4 cm) containing soybean leaves, and a number of dead larvae was checked in accordance with the same method as the examination method as stated under (a) except that the larvae were allowed to stand for 48 hours in place of 96 hours.
as §2

insect = test: Insecticidal and ovicidal effect (general statement); format: in vivo; conditions: in words
Oral toxicity in mice = conditions: mouse, in vivo
Spodoptera litura [3] = test: Insecticidal effect against Spodoptera litura, leaf spraying (Table 1, I); format: in vivo; conditions: read-out: mortality (I, spraying concn.)
Experimental: as §1
(a) The test compounds which comprise:
The above test compounds and control compounds were each processed into wettable powders in accordance with the same formula as in Example 9, followed by dilution with water to prepare emulsions containing 0.4 and 2 ppm, respectively. A spreader, Dyne® (produced by Takeda Chemical Industries, Japan), was added to the emulsions in the proportion of 0.03 volume % against the total volume, respectively, and 20 ml of each of the emulsions so obtained was sprayed by use of a spray gun (spraying pressure of 1 kg/cm^2) on seedlings (14 days after germination) of soybean grown in pots in a spray chamber. 2 hours after spraying, two true leaves were cut away and contained each in their respective ice-cream cup (diameter of 6 cm and depth of 4 cm), into which 10 third-instar larvae of Spodoptera litura was released. After the releasing of larvae, the cups were placed in a room (25° C.), and the number of larvae, […] was checked.
as §2

plant body = test: Penetration into the plant body (general statement); conditions: in words
[4] = 50 ppm sprayed on radish seedlings, second-instar larvae, 48 hours, read-out: Mortality, %
[5] = 0.4 ppm, rice seedlings dipped 30 minutes, third-instar larvae, 4 days
[6] = 2 ppm, rice seedlings dipped 30 minutes, third-instar larvae, 4 days
[7] = 0.4 ppm, wettable powder emulsion sprayed on soybean seedlings, third-instar larvae, 96 hours
[8] = 2 ppm, wettable powder emulsion sprayed on soybean seedlings, third-instar larvae, 96 hours
[9] = emulsifiable concentrate solution sprayed on third-instar larvae, 48 hours

| SMILES | mortality at 250 mg (Spodoptera litura [1]) [%] | mortality at 50 ppm (Plutella xylostella; [4]) [%] | mortality at 0.4 ppm (Chilo suppressalis; [5]) [%] | mortality at 2 ppm (Chilo suppressalis; [6]) [%] | LC50 at 72 h (Toxicity to fishes) [µg/mL] | mortality at 10 ppm (Spodoptera litura [2]; 48 h) [%] | insecticidal and ovicidal effect (insect) | LD50 (Oral toxicity in mice) [mg/kg] | mortality at 0.4 ppm (Chilo suppressalis) [%] | mortality at 2 ppm (Chilo suppressalis) [%] | mortality at 0.4 ppm (Spodoptera litura [3]; [7]) [%] | mortality at 2 ppm (Spodoptera litura [3]; [8]) [%] | mortality at 50 ppm (Spodoptera litura [2]; [9]) [%] | mortality at 0.4 ppm (Spodoptera litura [3]; in Glycine max, 96 h) [%] | mortality at 2 ppm (Spodoptera litura [3]; in Glycine max, 96 h) [%] | action to penetrate into the plant body (plant body) | mortality at 10 ppm (Spodoptera litura [2]; 10 ppm, emulsifiable concentrate solution sprayed on third-instar larvae, 48 hours) [%] | mortality at 50 ppm (Plutella xylostella; 48 h) [%] |
| --- | --- | --- | --- | --- | --- | --- | --- | --- | --- | --- | --- | --- | --- | --- | --- | --- | --- | --- |
| O=C(NC(=O)c1c(Cl)cccc1Cl)Nc1ccc(F)cc1F [Compound F, N-2,6-dichlorobenzoyl-N'-2,4-difluorophenylurea] | 0 | 20 | 0 | 0 | – | – | – | – | – | – | – | – | – | – | – | – | – | – |
| O=C(NC(=O)c1c(F)cccc1F)Nc1ccc(Cl)cc1F [Compound No. 1, N-2,6-Difluorobenzoyl-N'-2-fluoro-4-chlorophenylurea] | – | 100 | – | – | ≥ 10 | 60 | excellent insecticidal and ovicidal effect | ≥ 3000 | 80 | 100 | – | – | – | – | – | – | – | – |
| O=C(NC(=O)c1c(F)cccc1F)Nc1ccc(Br)cc1F [Compound No. 2, N-2,6-difluorobenzoyl-N'-2-fluoro-4-bromophenylurea] | 80 | 100 | – | – | – | 60 | excellent insecticidal and ovicidal effect | ≥ 3000 | 70 | 100 | – | – | – | – | – | – | – | – |
| O=C(NC(=O)c1c(F)cccc1F)Nc1ccc(I)c(F)c1 [Compound G, N-2,6-difluorobenzoyl-N'-3-fluoro-4-iodophenylurea] | 0 | 50 | 10 | 55 | – | – | – | – | – | – | 5 | 35 | 5 | – | – | – | – | – |
| O=C(NC(=O)c1c(Cl)cccc1Cl)Nc1ccc(Cl)c(F)c1 [Compound C, N-2,6-dichlorobenzoyl-N'-3-fluoro-4-chlorophenylurea] | 0 | 10 | 0 | 0 | – | – | – | – | – | – | 20 | 30 | – | – | – | – | – | – |
| O=C(NC(=O)c1c(F)cccc1F)Nc1ccc(I)cc1F [Compound No. 4, N-2,6-difluorobenzoyl-N'-2-fluoro-4-iodophenylurea] | 55 | 100 | – | – | – | 65 | – | ≥ 3000 | 75 | 100 | – | – | – | 100 | 100 | – | – | – |
| O=C(NC(=O)c1c(F)cccc1F)Nc1ccc(Cl)c(Cl)c1 [Compound E, N-2,6-difluorobenzoyl-N'-3,4-dichlorophenylurea] | 0 | 40 | 0 | 0 | – | – | – | – | – | – | 20 | 40 | – | – | – | – | – | – |
| O=C(NC(=O)c1c(Cl)cccc1Cl)Nc1ccc(Cl)cc1Cl [Compound B, N-2,6-dichlorobenzoyl-N'-2,4-dichlorophenylurea] | 0 | 0 | 0 | 0 | – | – | – | – | – | – | – | – | – | – | – | – | – | – |
| O=C(NC(=O)c1c(F)cccc1F)Nc1ccc(F)cc1F [Compound No. 3, N-2,6-difluorobenzoyl-N'-2,4-difluorophenyl urea] | 100 | 95 | – | – | – | 35 | – | ≥ 3000 | 40 | 80 | – | – | – | 80 | – | excellent action to penetrate into the plant body | – | – |
| O=C(NC(=O)c1c(F)cccc1F)Nc1ccc(Cl)c(F)c1 [Compound D, N-2,6-difluorobenzoyl-N'-3-fluoro-4-chlorophenylurea] | 0 | 45 | 10 | 45 | – | – | – | – | – | – | 25 | 45 | 30 | – | – | – | – | – |
| O=C(NC(=O)c1c(F)cccc1F)Nc1ccc(Cl)cc1 [Compound A, N-2,6-difluorobenzoyl-N'-4-chlorophenylurea] | – | – | 5 | 40 | – | – | – | – | – | – | 20 | 30 | 10 | – | – | – | 0 | 20 |
